PubChem BioAssay AID256 (DTP/NCI, 2004)
Several values for one entry are separate records, joined by “and”; a condition that tells them apart may be missing. Equal entries are not always repeated. Toxic doses and inconclusive results are not listed.

System: CD2F1 mice, L1210 leukemia ip, survival T/C
Experiment: NCI In Vivo Anticancer Drug Screen. Data for tumor model L1210 Leukemia (intraperitoneal) in CD2F1 (CDF1) mice
Details: higher = longer survival
How it was run: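 Implant tumor; dose compound or vehicle; measure endpoint in both groups; report treated divided by control.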

[1] = endpoint: mean survival time, dose: 100.0 mg/kg/injection, schedule: Q01DX009 (ip), vehicle: saline with Tween-80
[2] = endpoint: mean survival time, dose: 100.0 mg/kg/injection, schedule: Q04DX003 (ip), vehicle: saline with Tween-80
[3] = endpoint: mean survival time, dose: 200.0 mg/kg/injection, schedule: Q01DX009 (ip), vehicle: saline with Tween-80
[4] = endpoint: mean survival time, dose: 200.0 mg/kg/injection, schedule: Q04DX003 (ip), vehicle: saline with Tween-80
[5] = endpoint: mean survival time, dose: 400.0 mg/kg/injection, schedule: Q01DX009 (ip), vehicle: saline with Tween-80
[6] = endpoint: mean survival time, dose: 400.0 mg/kg/injection, schedule: Q04DX003 (ip), vehicle: saline with Tween-80
[7] = endpoint: median survival time, dose: 25.0 mg/kg/injection, schedule: Q01DX009 (ip), vehicle: saline with Tween-80
[8] = endpoint: median survival time, dose: 100.0 mg/kg/injection, schedule: Q01DX009 (ip), vehicle: saline with Tween-80

Compound: O=NN(CCCl)C(=O)NC1C(O)C(O)C(O)C(O)C1O (stereo unspecified)
- T/C (endpoint: mean survival time, dose: 13.0 mg/kg/injection, schedule: Q01DX001 (ip), vehicle: saline): 167 % of control and 220 % of control
- T/C (endpoint: mean survival time, dose: 20.0 mg/kg/injection, schedule: Q01DX001 (ip), vehicle: saline): 173 % of control and 227 % of control
- T/C (endpoint: mean survival time, dose: 25.0 mg/kg/injection, schedule: Q01DX001 (ip), vehicle: saline): 255 % of control
- T/C (endpoint: mean survival time, dose: 30.0 mg/kg/injection, schedule: Q01DX001 (ip), vehicle: saline): 271 % of control and 282 % of control
- T/C (endpoint: mean survival time, dose: 44.0 mg/kg/injection, schedule: Q01DX001 (ip), vehicle: saline): 197 % of control

Compound: O=P1(N(CCCl)CCCl)NCC2(O1)C1CC3CC(C1)CC2C3 (stereo unspecified)
- T/C (endpoint: mean survival time, dose: 15.6 mg/kg/injection, schedule: Q01DX001 (ip), vehicle: distilled water + Tween-80): 101 % of control
- T/C (endpoint: mean survival time, dose: 31.3 mg/kg/injection, schedule: Q01DX001 (ip), vehicle: distilled water + Tween-80): 96 % of control
- T/C (endpoint: mean survival time, dose: 62.5 mg/kg/injection, schedule: Q01DX001 (ip), vehicle: distilled water + Tween-80): 101 % of control
- T/C (endpoint: mean survival time, dose: 125.0 mg/kg/injection, schedule: Q01DX001 (ip), vehicle: distilled water + Tween-80): 96 % of control
- T/C (endpoint: mean survival time, dose: 250.0 mg/kg/injection, schedule: Q01DX001 (ip), vehicle: distilled water + Tween-80): 96 % of control
- T/C (endpoint: mean survival time, dose: 500.0 mg/kg/injection, schedule: Q01DX001 (ip), vehicle: distilled water + Tween-80): 91 % of control

Compound: Nc1ccc(-c2ccc(N)c([N+](=O)[O-])c2)cc1[N+](=O)[O-]
- T/C [1]: 98 % of control
- T/C [2]: 86 % of control
- T/C [3]: 94 % of control
- T/C [4]: 89 % of control
- T/C [5]: 95 % of control
- T/C [6]: 86 % of control

Compound: NC1CC(=O)C(CC2C(=O)CC(N)CC2=O)C(=O)C1 (stereo unspecified)
- T/C [2]: 102 % of control
- T/C [4]: 101 % of control
- T/C [6]: 98 % of control

Compound: Oc1ccc(/C=N/N=C/c2ccc(O)c(O)c2)cc1O
- T/C [7]: 108 % of control
- T/C (endpoint: median survival time, dose: 50.0 mg/kg/injection, schedule: Q01DX009 (ip), vehicle: saline with Tween-80): 110 % of control
- T/C [8]: 112 % of control

Compound: COc1ccc(C(=O)NS(=O)(=O)c2ccc(C)cc2)cc1
- T/C [1]: 103 % of control
- T/C [3]: 98 % of control
- T/C [5]: 104 % of control

Compound: CCN(CC)CCNc1ccc(C)c2sc3ccccc3c(=O)c12
- T/C (endpoint: mean survival time, dose: 7.5 mg/kg/injection, schedule: Q01DX005 (ip), vehicle: water): 103 % of control
- T/C (endpoint: mean survival time, dose: 15.0 mg/kg/injection, schedule: Q01DX005 (ip), vehicle: water): 104 % of control
- T/C (endpoint: mean survival time, dose: 25.0 mg/kg/injection, schedule: Q01DX007 (ip), vehicle: saline): 121 % of control
- T/C (endpoint: mean survival time, dose: 25.0 mg/kg/injection, schedule: Q01DX009 (ip), vehicle: saline): 118 % of control
- T/C (endpoint: mean survival time, dose: 25.0 mg/kg/injection, schedule: Q03DX003 (ip), vehicle: saline): 107 % of control
- T/C (endpoint: mean survival time, dose: 25.0 mg/kg/injection, schedule: Q04DX003 (ip), vehicle: saline): 107 % of control
- T/C (endpoint: mean survival time, dose: 30.0 mg/kg/injection, schedule: Q01DX005 (ip), vehicle: water): 106 % of control
- T/C (endpoint: mean survival time, dose: 50.0 mg/kg/injection, schedule: Q03DX003 (ip), vehicle: saline): 112 % of control
- T/C (endpoint: mean survival time, dose: 50.0 mg/kg/injection, schedule: Q04DX003 (ip), vehicle: saline): 114 % of control
- T/C (endpoint: mean survival time, dose: 100.0 mg/kg/injection, schedule: Q01DX007 (ip), vehicle: saline): 163 % of control
- T/C (endpoint: mean survival time, dose: 100.0 mg/kg/injection, schedule: Q01DX009 (ip), vehicle: saline): 171 % of control
- T/C (endpoint: mean survival time, dose: 120.0 mg/kg/injection, schedule: Q01DX005 (ip), vehicle: water): 110 % of control
- T/C (endpoint: median survival time, dose: 6.25 mg/kg/injection, schedule: Q01DX009 (ip), vehicle: water): 116 % of control
- T/C (endpoint: median survival time, dose: 12.5 mg/kg/injection, schedule: Q01DX009 (ip), vehicle: water): 121 % of control
- T/C [7]: 114 % of control
- T/C (endpoint: median survival time, dose: 25.0 mg/kg/injection, schedule: Q01DX009 (ip), vehicle: saline): 116 % of control and 120 % of control and 100 % of control
- T/C (endpoint: median survival time, dose: 50.0 mg/kg/injection, schedule: Q01DX009 (ip), vehicle: water): 165 % of control
- T/C [8]: 198 % of control
- T/C (endpoint: median survival time, dose: 100.0 mg/kg/injection, schedule: Q01DX009 (ip), vehicle: water): 112 % of control
- T/C (endpoint: median survival time, dose: 200.0 mg/kg/injection, schedule: Q01DX009 (ip), vehicle: saline with Tween-80): 118 % of control
